Source: patent publication US11680264B2, “Methods of modulating melanosome pH and melanin level in cells” (Cornell University, priority 2016, dated 2023)

Key:
sAC^FF mouse melanocytes = experiment: Cellular eumelanin content; format: cell-based; settings: KH7 30 μM or LRE1 50 μM, 96 hours
Method: (§1) FIGS. 15A-15J provide the results of experiments analyzing the effect of sAC activity on melanin production. FIG. 15A is a graph illustrating the cellular eumelanin and pheomelanin content in sAC^FF (FF) and sAC^KO (KO) mouse melanocytes. Numbers above bars represent the ratio of pheomelanin to eumelanin. Average of triplicate determinations. FIG. 15B is a graph illustrating the cellular eumelanin content of sAC^FF and sAC^KO mouse melanocytes grown for 96 hours in the absence (−, DMSO) or presence of KH7 (+, 30 μM). Average of triplicate determinations. FIG. 15C is a graph illustrating the fold over baseline cellular eumelanin level of human melanocytes (n=8) treated with KH7 (30 μM) or vehicle (DMSO) for 48 hours. All assays performed in triplicate. Students t-test **P<0.01, ****P<0.0001. FIG. 15D is images of cell pellets of sAC^FF and sAC^KO mouse melanocytes. FIG. 15E is a graph of the melanin levels of pairs of sAC^FF and sAC^KO mouse melanocytes. FIGS. 15F and 15G are images of cell pellets of sAC^FF mouse melanocytes grown in the absence (DMSO, FIGS. 15G and 15F, left panels) or presence of KH7 (FIG. 15G, 30 μM, right panel) or LRE1 (FIG. 15F, 50 μM, right panel) for 96 hours. FIG. 15H is images of cell pellets of human melanocytes (C226, C38) treated with vehicle control (DMSO, left) or KH7 (30 μM, right) for 48 hours. FIG. 15I is images of cell pellets of human melanocytes (C226) treated with vehicle control (DMSO, left) or ESl-09 (10 μM, right) for 48 hours. FIG. 15J is a graph illustrating the fold over baseline cellular (eumelanin) level of human melanocytes treated with ESl-09 (10 μM) or vehicle (DMSO) for 48 hours (n=3, distinct human cell lines). For FIGS. 15E and 15J Students t-test, *p<0.05, **p<0.01, ****p<0.0001.

sAC^KO mouse melanocytes = experiment: Cellular eumelanin content; format: cell-based; settings: 96 hours
Method: as §1

C3H/HeJ mice = experiment: Topical treatment of ear, epidermal pigmentation (Fontana Masson); format: in vivo, mouse; settings: topical on right ear, twice a day for two weeks
Method: Melanocytes also exist in the epidermis at specific areas of mouse skin (e.g., pinnae) (Nordlund et al., Dermatol Clin., 4(3): 407-418 (1986)); thus, these areas were studied to examine the role of sAC in epidermal pigmentation. For analysis of epidermal pigmentation, using C3H/HeJ mice as above, 20 μl of KH7 ([…]), LRE1 (28 mg/ml) or DMSO (vehicle control) was topically applied on the right ear and DMSO was topically applied on the left ear twice a day for two weeks. Ear skin was monitored daily for irritation and changes in pigmentation. After two weeks, mice were euthanized and the treated skin was submitted to a blinded animal pathologist for histological evaluation of the epidermis and special stains (Fontana Masson). This experiment was performed twice with 3 mice per cohort (total n=6)

CC(Sc1nc2ccccc2[nH]1)C(=O)N/N=C/c1cc(Br)ccc1O (stereo not shown) [KH7]
eumelanin levels (sAC^FF mouse melanocytes): increased eumelanin levels | eumelanin levels (sAC^KO mouse melanocytes): had no effect | colour of ear epidermis relative to vehicle control (C3H/HeJ mice; 20 μl KH7 or LRE1 (28 mg/ml)): induced visual darkening of mouse ear epidermis | epidermal melanin accumulation (Fontana Masson) (C3H/HeJ mice): increase in epidermal melanin accumulation
